Assay results reported in patent publication US9107415B2, “2-(substituted-phenyl)-cyclopentane-1,3-dione compounds, and derivatives thereof” (Syngenta Limited, priority 2011, dated 2015).

What was measured:
Format in all cases: in vivo
[1] = test system: Triticum aestivum, wheat (TRZAW); assay: Biological Example 3 glasshouse screen, post-emergence, phytotoxicity on wheat; settings: 360 h, application rate 30 g/ha, 15 DAA, no safener, read-out: TRZAW percentage phytotoxicity
Protocol: (§1) Test Method: Seeds of a variety of test species are sown in standard soil in pots. After cultivation for one day (pre-emergence) or after 12 days cultivation (post-emergence) under controlled conditions in a glasshouse (warm climate species at 24/18°C., cool climate species at 20/16°C., both at day/night; 16 hours light; 65% humidity), the plants are sprayed with an aqueous spray solution derived from the formulation of the “technical”(i.e. unformulated) active ingredient dissolved in acetone plus IF50, at a 1:20 ratio of “technical”active ingredient to IF50. The IF50 contains about 10.56 weight % Emulsogen EL™(castor oil ethoxylate, CAS Registry number 61791-12-6), about 42.22 weight % N-methylpyrrolidone, and about 42.22 weight % DPG-Monoethyl ether (dipropylene glycol mono-ethyl ether). The adjuvant X-77 (a mixture of alkyl aryl polyoxyethylene glycols and free fatty acids in isopropanol, CAS Registry number 11097-66-8) is added to the aqueous spray solution to form a 0.2% v/v solution, before spraying onto the plants.
(§2) The test plants are then grown in a glasshouse under controlled conditions in a glasshouse (at 24/18°C. or 20/16°C., day/night; 16 hours light; 65% humidity) and watered twice daily. After 15 days after application of the herbicide (15 DAA) (for post-emergence), and after 20 DAA (for pre-emergence), the test is evaluated visually, and an assessed percentage phytotoxicity score is given for each herbicidal application on each plant/weed species (with 100%=total damage to plant; 0%=no damage to plant).
These give an approximate indication of the level of selectivity on wheat for these tested compounds, when a herbicide safener such as cloquintocet-mexyl is not used: […]

Avena fatua (AVEFA) [2] = assay: Biological Example 2 post-emergence herbicidal activity (comparative data)
Protocol: (§3) Seeds of a variety of test species were sown in standard soil in pots. After cultivation for one day (pre-emergence) or after 8 days cultivation (post-emergence) under controlled conditions in a glasshouse (at 24/16°C., day/night; 14 hours light; 65% humidity), the plants were sprayed with an aqueous spray solution derived from the formulation of the “technical”(i.e. unformulated) active ingredient in acetone/water (50:50) solution containing 0.5% Tween 20 (polyoxyethylene sorbitan monolaurate, CAS Registry Number 9005-64-5). The test plants were then grown in a glasshouse under controlled conditions in a glasshouse (at 24/16°C., day/night; 14 hours light; 65% humidity) and watered twice daily. After 13 days for pre- or post-emergence, the test was evaluated visually, and an assessed percentage phytotoxicity score given for each herbicidal application on each plant/weed species (with 100%=total damage to plant; 0%=no damage to plant).
(§4) Comparative herbicidal data are given for certain exemplified compounds with 4-(prop-1-ynyl)-2,6-dimethylphenyl or 4-(chloroethynyl)-2,6-dimethylphenyl headgroups, compared to the corresponding comparative compounds with 4-ethynyl-2,6-dimethylphenyl headgroups, as follows.
(§5) Except where specified otherwise, the glasshouse screen for herbicidal activity is substantially the same as that presented in Biological Example 1 hereinabove. The weed abbreviations are as defined in Biological Example 1.

Lolium perenne (LOLPE) [3] = assay: as above
Protocol: as §3, §4, §5

[4] = test system: Alopecurus myosuroides (ALOMY); assay: as above; settings: 312 h, read-out: ALOMY percentage phytotoxicity
Protocol: as §3, §4, §5

[5] = test system: Echinochloa crus-galli (ECHCG); assay: as above; settings: 312 h, read-out: ECHCG percentage phytotoxicity
Protocol: as §3, §4, §5

Avena fatua (AVEFA) [6] = assay: Biological Example 1 glasshouse screen, post-emergence herbicidal activity; settings: 312 h, application rate 250 g/ha, evaluated after 13 days, read-out: AVEFA percentage phytotoxicity
Protocol: as §3
(§6) Test plants: Lolium perenne (LOLPE), Alopecurus myosuroides (ALOMY), Echinochloa crus-galli (ECHCG), and Avena fatua (AVEFA). All four of these are grassy monocotyledonous weeds.

Lolium perenne (LOLPE) [7] = assay: as above; settings: 312 h, application rate 250 g/ha, evaluated after 13 days, read-out: LOLPE percentage phytotoxicity
Protocol: as §3, §6

Avena fatua (AVEFA) [8] = assay: Biological Example 1 glasshouse screen, pre-emergence herbicidal activity; settings: 312 h, application rate 250 g/ha, evaluated after 13 days, read-out: AVEFA percentage phytotoxicity
Protocol: as §3, §6

Lolium perenne (LOLPE) [9] = assay: as above; settings: 312 h, application rate 250 g/ha, evaluated after 13 days, read-out: LOLPE percentage phytotoxicity
Protocol: as §3, §6

[10] = test system: Echinochloa crus galli, barnyardgrass (ECHCG); assay: Biological Example 3 glasshouse screen, post-emergence herbicidal activity; settings: 360 h, application rate 30 g/ha, 15 DAA, no safener, read-out: ECHCG percentage phytotoxicity
Protocol: as §1
as §2, with “plant). […]” for “plant).”

[11] = test system: Lolium perenne, perennial ryegrass (LOLPE); assay: as above; settings: 360 h, application rate 30 g/ha, 15 DAA, no safener, read-out: LOLPE percentage phytotoxicity
Protocol: as §1
as §2, with “plant). […]” for “plant).”

[12] = test system: Avena fatua, wild oats (AVEFA); assay: as above; settings: 360 h, application rate 30 g/ha, 15 DAA, no safener, read-out: AVEFA percentage phytotoxicity
Protocol: as §1
as §2, with “plant). […]” for “plant).”

[13] = test system: Alopecurus myosuroides, blackgrass (ALOMY); assay: as above; settings: 360 h, application rate 30 g/ha, 15 DAA, no safener, read-out: ALOMY percentage phytotoxicity
Protocol: as §1
as §2, with “plant). […]” for “plant).”

[14] = test system: Alopecurus myosuroides (ALOMY); assay: Biological Example 1 glasshouse screen, post-emergence herbicidal activity; settings: 312 h, application rate 250 g/ha, evaluated after 13 days, read-out: ALOMY percentage phytotoxicity
Protocol: as §3
(§7) Test plants: Alopecurus myosuroides (ALOMY), Setaria faberi (SETFA), Echinochloa crus-galli (ECHCG), Solanum nigrum (SOLNI), Amaranthus retroflexus (AMARE) and Ipomoea hederacea (IPOHE). ALOMY, SETFA and ECHCG are grassy monocotyledonous weeds. SOLNI, AMARE and IPOHE are dicotyledonous (broadleaved) weeds.
as §6

[15] = test system: Echinochloa crus-galli (ECHCG); assay: as above; settings: 312 h, application rate 250 g/ha, evaluated after 13 days, read-out: ECHCG percentage phytotoxicity
Protocol: as §3, §7, §6

[16] = test system: Alopecurus myosuroides (ALOMY); assay: Biological Example 1 glasshouse screen, pre-emergence herbicidal activity; settings: 312 h, application rate 250 g/ha, evaluated after 13 days, read-out: ALOMY percentage phytotoxicity
Protocol: as §3, §7, §6

[17] = test system: Echinochloa crus-galli (ECHCG); assay: as above; settings: 312 h, application rate 250 g/ha, evaluated after 13 days, read-out: ECHCG percentage phytotoxicity
Protocol: as §3, §7, §6

## CC#Cc1cc(C)c(C2=C(O)CC(CC3CCOCC3)C2=O)c(C)c1 (stereo not drawn) [Compound A-4, 2-(2,6-Dimethyl-4-prop-1-ynylphenyl)-4-(tetrahydropyran-4-ylmethyl)cyclopentane-1,3-dione]
[1]
  pest or weed control at 30 g/ha: 80%
Avena fatua (AVEFA) [2]; 15.625 g/ha application rate
  AVEFA percentage phytotoxicity: 100%
Avena fatua (AVEFA) [2]; 62.5 g/ha application rate
  AVEFA percentage phytotoxicity: 100%
Lolium perenne (LOLPE) [3]; 15.625 g/ha application rate
  LOLPE percentage phytotoxicity: 100%
Lolium perenne (LOLPE) [3]; 62.5 g/ha application rate
  LOLPE percentage phytotoxicity: 100%
[4]; 15.625 g/ha application rate
  pest or weed control at 15.625 g/ha: 70%
[4]; 62.5 g/ha application rate
  pest or weed control at 62.5 g/ha: 90%
[5]; 15.625 g/ha application rate
  pest or weed control at 15.625 g/ha: 100%
[5]; 62.5 g/ha application rate
  pest or weed control at 62.5 g/ha: 100%
Avena fatua (AVEFA) [6]
  pest or weed control at 250 g/ha: 100%
Lolium perenne (LOLPE) [7]
  pest or weed control at 250 g/ha: 100%
Avena fatua (AVEFA) [8]
  pest or weed control at 250 g/ha: 70%
Lolium perenne (LOLPE) [9]
  pest or weed control at 250 g/ha: 100%
[10]
  pest or weed control at 30 g/ha: 100%
[11]
  pest or weed control at 30 g/ha: 100%
[12]
  pest or weed control at 30 g/ha: 80%
[13]
  pest or weed control at 30 g/ha: 100%
[14]
  pest or weed control at 250 g/ha: 90%
[15]
  pest or weed control at 250 g/ha: 100%
[16]
  pest or weed control at 250 g/ha: 100%
[17]
  pest or weed control at 250 g/ha: 100%
